These results are taken from US4882420A, “Dihalo-statine substituted renin inhibitors” (The Upjohn Company, priority 1986, dated 1989).

The experiment addresses T1, renin (plasma renin activity of human plasma) (Homo sapiens, UniProt P00797).
T1 construct: Lyophilized human plasma with 0.1% EDTA is obtained from New England Nuclear; tissue New England Nuclear Plasma Renin Activity Control; host or cells: human plasma (lyophilized, reconstituted)
T1 sequence (P00797 67-406): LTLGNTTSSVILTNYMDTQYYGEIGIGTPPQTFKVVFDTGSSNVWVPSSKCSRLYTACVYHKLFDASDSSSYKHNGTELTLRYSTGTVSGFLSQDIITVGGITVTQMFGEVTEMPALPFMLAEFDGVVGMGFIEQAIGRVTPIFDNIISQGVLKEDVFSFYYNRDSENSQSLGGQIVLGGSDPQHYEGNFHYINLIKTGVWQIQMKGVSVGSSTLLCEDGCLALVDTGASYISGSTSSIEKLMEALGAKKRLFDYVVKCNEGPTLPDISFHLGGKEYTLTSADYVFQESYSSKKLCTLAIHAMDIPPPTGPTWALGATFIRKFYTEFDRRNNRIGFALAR
Kind of experiment: GAMMACOAT plasma renin activity (PRA) radioimmunoassay, inhibition of angiotensin I generation in reconstituted human plasma. The format is biochemical. The conditions noted are these: for potency estimated from few doses: reconstituted lyophilized human plasma, 90 minutes at 37° C., estimated by plotting two inhibitor concentrations, read-out: IC50 (I50, concentration producing 50% inhibition of plasma renin activity). Here is the method: Lyophilized human plasma with 0.1% EDTA is obtained from New England Nuclear, North Billerica, Mass. 01862 as "Plasma Renin Activity Control". This lyophilized plasma is reconstituted, on the day of the assay, with cold sterile distilled water according to directions on the vial. The plasma renin activity (PRA) of the reconstituted plasma is assayed with "GAMMACOAT [^125 I] Plasma Renin Activity Radioimmunoassay Kit" supplied by Clinical Assays, a Division of Travenol Laboratories, Inc., Cambridge, Mass. 02139. The procedure used with these kits is carried out essentially as described in the literature which accompanies them. The initial (enzymatic generation of Angiotensin 1) step is modified slightly to accommodate the testing of renin inhibitors and to minimize the amount of plasma required to perform the assay. Thus, for every milliliter of reconstituted plasma used in the assay, there is added and vortexed 10 μl of PMSF (0.3M phenylmethylsulfonyl fluoride in ethanol) and 100 μl of maleate generation buffer, both provided in the kit. 250 μl of this mixture is then transferred to each tube used in the generation step along with 10 μl of the potential renin inhibitor suspended or dissolved in 1% Tween 80 in water. […]
In the case of renin inhibitory peptide (RIP), 100 μl of the 4° C. blank is added to a GAMMACOAT tube. […] The tubes are then counted in a gamma counter. The results of the RIP are evaluated with the Rodbard Radioimmunoassay Program and the plasma renin activity (PRA) is expressed as […]. […] In addition to I50 values, relative potencies are also calculated. A relative potency is determined by comparing the I50 of RIP to the I50 of the compound. However, it must be emphasized that relative potencies are calculated from the I50 obtained for RIP on the day the compound is assayed and not from the average I50 for RIP.
It has been determined that the GAMMACOAT-PRA assay is a suitable replacement for the RENAK assay (supplied by Hoffman-LaRoche and previously known as a diagnostic test for high renin states) to determine the activity of potential renin inhibitors.

For the molecule `CC[C@H](C)[C@H](NC(=O)C(F)(F)C(=O)C(CC(C)C)NC(=O)[C@H](Cc1c[nH]cn1)NC(=O)[C@H](Cc1ccccc1)NC(=O)OC(C)(C)C)C(=O)NCc1ccccn1` (stereo partly drawn) [N-tert-butyloxycarbonyl-L-phenylalanyl-L-histidyl-4-amino-2,2-difluoro-4-(2-methylpropyl)-1,3-dioxobutyl-L-isoleucyl-2-pyridylmethylamide], the potency estimated from few doses was 1.4 nM. In the case of `CC[C@H](C)[C@H](NC(=O)C(F)(F)[C@H](O)[C@H](CC(C)C)NC(=O)[C@H](Cc1c[nH]cn1)NC(=O)[C@H](Cc1ccccc1)NC(=O)OC(C)(C)C)C(=O)NCc1ccccn1` [N-tert-butyloxycarbonyl-L-phenylalanyl-L-histidyl-4S-amino-2,2-difluoro-3R-hydroxy-4-(2-methylpropyl)-1-oxobutyl-L-isoleucyl-2-pyridylmethylamide], the potency estimated from few doses was 12 nM. Also, where the note is “relative to RIP (H-Pro-His-Pro-Phe-His-Phe-Phe-Val-Tyr-Lys-OH) assayed on the same day”, the “relative potency (I50 of RIP compared to I50 of the compound)” value is given as 1,000.
